Reference: PubChem BioAssay AID226 (DTP/NCI, 2004)
“And” between values parts separate entries of the source, which are not always exact repeats. Identical values can stand only once. Toxic doses and inconclusive results are not listed.

Tested on: B6C3F1 mice, intracerebral ependymoblastoma, median survival T/C
Assay: NCI In Vivo Anticancer Drug Screen. Data for tumor model Ependymoblastoma (intracerebral) in B6C3F1 mice
Settings: endpoint: median survival time, higher = longer survival
Description: The antitumor activity of compounds was measured in mice bearing transplantable tumors. Survival or tumor size were measured and the results are expressed as the measurement made in the treated group (T) divided by the measurement made in the vehicle treated control group (C). The tumor model used in this assay is Ependymoblastoma (intracerebral) in B6C3F1 mice

[1] = dose: 10.0 mg/kg/injection, schedule: Q01DX005 (ip), vehicle: Klucel (hydroxypropylcellulose) (HPC)
[2] = dose: 20.0 mg/kg/injection, schedule: Q01DX005 (ip), vehicle: Klucel (hydroxypropylcellulose) (HPC)
[3] = dose: 40.0 mg/kg/injection, schedule: Q01DX005 (ip), vehicle: Klucel (hydroxypropylcellulose) (HPC)
[4] = dose: 2.0 mg/kg/injection, schedule: Q01DX005 (ip), vehicle: saline
[5] = dose: 0.5 mg/kg/injection, schedule: Q01DX005 (ip), vehicle: saline
[6] = dose: 1.0 mg/kg/injection, schedule: Q01DX005 (ip), vehicle: saline
[7] = dose: 2.0 mg/kg/injection, schedule: Q01DX005 (ip), vehicle: Klucel (hydroxypropylcellulose) (HPC)
[8] = dose: 4.0 mg/kg/injection, schedule: Q01DX005 (ip), vehicle: Klucel (hydroxypropylcellulose) (HPC)
[9] = dose: 32.0 mg/kg/injection, schedule: Q01DX005 (ip), vehicle: saline
[10] = dose: 64.0 mg/kg/injection, schedule: Q01DX005 (ip), vehicle: saline
[11] = dose: 128.0 mg/kg/injection, schedule: Q01DX005 (ip), vehicle: saline

Q: What does the source list for NC(=O)c1cn(C2OC(CO)C(O)C2O)c2ncnc(N)c12 (configuration not stated)?
A: T/C (dose: 0.38 mg/kg/injection, schedule: Q01DX005 (ip), vehicle: Klucel (hydroxypropylcellulose) (HPC)): 92 % of control; T/C (dose: 0.75 mg/kg/injection, schedule: Q01DX005 (ip), vehicle: Klucel (hydroxypropylcellulose) (HPC)): 90 % of control; T/C (dose: 1.5 mg/kg/injection, schedule: Q01DX005 (ip), vehicle: Klucel (hydroxypropylcellulose) (HPC)): 103 % of control; T/C (dose: 3.0 mg/kg/injection, schedule: Q01DX005 (ip), vehicle: Klucel (hydroxypropylcellulose) (HPC)): 94 % of control

Q: How did the T/C [1] turn out when CCCCCCC1CC1C(=O)NCCCCCN=C(N)N (configuration not stated) was run?
A: The T/C was 96 % of control.

Q: And the T/C [2]?
A: The T/C was 102 % of control.

Q: And the T/C [3]?
A: Its T/C is 101 % of control.

Q: What does the source list for CC1CCC(NC(=O)N(CCCl)N=O)CC1 (configuration not stated)?
A: T/C (dose: 0.5 mg/kg/injection, schedule: Q01DX009 (ip), vehicle: Klucel (hydroxypropylcellulose) (HPC)): 108 % of control; T/C (dose: 1.0 mg/kg/injection, schedule: Q01DX005 (ip), vehicle: other): 110 % of control; T/C (dose: 1.0 mg/kg/injection, schedule: Q01DX009 (ip), vehicle: Klucel (hydroxypropylcellulose) (HPC)): 106 % of control; T/C (dose: 2.0 mg/kg/injection, schedule: Q01DX005 (ip), vehicle: other): 160 % of control; T/C [4]: 102 % of control; T/C (dose: 2.0 mg/kg/injection, schedule: Q01DX009 (ip), vehicle: Klucel (hydroxypropylcellulose) (HPC)): 112 % of control; T/C (dose: 4.0 mg/kg/injection, schedule: Q01DX005 (ip), vehicle: other): 119 % of control; T/C (dose: 4.0 mg/kg/injection, schedule: Q01DX005 (ip), vehicle: saline): 108 % of control; T/C (dose: 6.25 mg/kg/injection, schedule: Q01DX001 (ip), vehicle: saline + alcohol): 118 % of control; T/C (dose: 8.0 mg/kg/injection, schedule: Q01DX005 (ip), vehicle: other): 160 % of control; T/C (dose: 8.3 mg/kg/injection, schedule: Q01DX001 (ip), vehicle: DMSO): 104 % of control; T/C (dose: 13.8 mg/kg/injection, schedule: Q01DX001 (ip), vehicle: DMSO): 108 % of control; T/C (dose: 16.0 mg/kg/injection, schedule: Q01DX001 (ip), vehicle: other): 124 % of control; T/C (dose: 16.0 mg/kg/injection, schedule: Q01DX005 (ip), vehicle: other): 300 % of control; T/C (dose: 23.0 mg/kg/injection, schedule: Q01DX001 (ip), vehicle: DMSO): 122 % of control; T/C (dose: 25.0 mg/kg/injection, schedule: Q01DX001 (ip), vehicle: saline + alcohol): 182 % of control; T/C (dose: 38.4 mg/kg/injection, schedule: Q01DX001 (ip), vehicle: DMSO): 112 % of control; T/C (dose: 50.0 mg/kg/injection, schedule: Q01DX001 (ip), vehicle: saline + alcohol): 235 % of control; T/C (dose: 64.0 mg/kg/injection, schedule: Q01DX001 (ip), vehicle: DMSO): 118 % of control; T/C (dose: 64.0 mg/kg/injection, schedule: Q01DX001 (ip), vehicle: other): 191 % of control; T/C (dose: 128.0 mg/kg/injection, schedule: Q01DX001 (ip), vehicle: other): 204 % of control

Q: For O=C1C(NCC(O)CO)=C(N2CC2)C(=O)C(NCC(O)CO)=C1N1CC1 (configuration not stated), which T/C [5] is on record?
A: The T/C was 117 % of control.

Q: And the T/C [6]?
A: The T/C was 116 % of control.

Q: Which T/C (dose: 1.0 mg/kg/injection, schedule: Q01DX001 (ip), vehicle: saline + alcohol) does the source give for NC(=O)N(CCCl)N=O here?
A: Its T/C is 121 % of control.

Q: What about the T/C (dose: 4.0 mg/kg/injection, schedule: Q01DX001 (ip), vehicle: saline + alcohol) of the same compound?
A: Its T/C is 184 % of control.

Q: What does the source list for CNNCc1ccc(C(=O)NC(C)C)cc1?
A: T/C (dose: 32.0 mg/kg/injection, schedule: Q01DX005 (ip), vehicle: Klucel (hydroxypropylcellulose) (HPC)): 156 % of control; T/C (dose: 64.0 mg/kg/injection, schedule: Q01DX005 (ip), vehicle: Klucel (hydroxypropylcellulose) (HPC)): 155 % of control

Q: Which results are given for O=C(O)CCCc1ccc(N(CCCl)CCCl)cc1?
A: T/C (dose: 0.5 mg/kg/injection, schedule: Q01DX005 (ip), vehicle: Klucel (hydroxypropylcellulose) (HPC)): 114 % of control; T/C (dose: 1.0 mg/kg/injection, schedule: Q01DX005 (ip), vehicle: Klucel (hydroxypropylcellulose) (HPC)): 114 % of control; T/C (dose: 1.0 mg/kg/injection, schedule: Q01DX005 (ip), vehicle: saline with Tween-80): 120 % of control; T/C (dose: 2.0 mg/kg/injection, schedule: Q01DX001 (ip), vehicle: Klucel (hydroxypropylcellulose) (HPC)): 103 % of control and 104 % of control (2×); T/C [7]: 113 % of control; T/C (dose: 4.0 mg/kg/injection, schedule: Q01DX001 (ip), vehicle: Klucel (hydroxypropylcellulose) (HPC)): 97 % of control and 104 % of control and 105 % of control; T/C [8]: 105 % of control; T/C (dose: 8.0 mg/kg/injection, schedule: Q01DX001 (ip), vehicle: Klucel (hydroxypropylcellulose) (HPC)): 100 % of control and 101 % of control and 108 % of control; T/C (dose: 8.0 mg/kg/injection, schedule: Q01DX005 (ip), vehicle: Klucel (hydroxypropylcellulose) (HPC)): 113 % of control; T/C (dose: 8.0 mg/kg/injection, schedule: Q01DX005 (ip), vehicle: saline with Tween-80): 153 % of control; T/C (dose: 16.0 mg/kg/injection, schedule: Q01DX001 (ip), vehicle: Klucel (hydroxypropylcellulose) (HPC)): 104 % of control and 108 % of control and 110 % of control; T/C (dose: 16.0 mg/kg/injection, schedule: Q01DX005 (ip), vehicle: saline with Tween-80): 180 % of control; T/C (dose: 32.0 mg/kg/injection, schedule: Q01DX001 (ip), vehicle: Klucel (hydroxypropylcellulose) (HPC)): 114 % of control and 117 % of control and 121 % of control

Q: Which T/C [1] does the source give for O=C1C(=O)c2ccccc2C(O)=C1CC=C(Cl)Cl here?
A: The T/C was 100 % of control and 103 % of control.

Q: What about the T/C [2] of the same compound?
A: Its T/C is 96 % of control and 98 % of control.

Q: What about the T/C [3] of the same compound?
A: The T/C was 103 % of control and 89 % of control.

Q: What about the T/C (dose: 80.0 mg/kg/injection, schedule: Q01DX005 (ip), vehicle: Klucel (hydroxypropylcellulose) (HPC)) of the same compound?
A: Its T/C is 96 % of control and 103 % of control.

Q: Which results are given for CC(=O)CC(c1ccccc1)c1c(O)c2ccccc2oc1=O (configuration not stated)?
A: T/C (dose: 0.05 mg/kg/injection, schedule: Q01DX005 (ip), vehicle: Klucel (hydroxypropylcellulose) (HPC)): 113 % of control; T/C (dose: 0.1 mg/kg/injection, schedule: Q01DX005 (ip), vehicle: Klucel (hydroxypropylcellulose) (HPC)): 100 % of control and 108 % of control; T/C (dose: 0.2 mg/kg/injection, schedule: Q01DX005 (ip), vehicle: Klucel (hydroxypropylcellulose) (HPC)): 105 % of control and 110 % of control; T/C (dose: 0.4 mg/kg/injection, schedule: Q01DX005 (ip), vehicle: Klucel (hydroxypropylcellulose) (HPC)): 98 % of control and 104 % of control; T/C (dose: 0.8 mg/kg/injection, schedule: Q01DX005 (ip), vehicle: Klucel (hydroxypropylcellulose) (HPC)): 101 % of control and 88 % of control; T/C (dose: 1.6 mg/kg/injection, schedule: Q01DX005 (ip), vehicle: Klucel (hydroxypropylcellulose) (HPC)): 98 % of control

Q: For CN(CCO)/N=N/c1nc[nH]c1C(N)=O, which T/C [9] is on record?
A: Its T/C is 116 % of control.

Q: And the T/C [10]?
A: Its T/C is 109 % of control and 112 % of control.

Q: And the T/C [11]?
A: The T/C was 114 % of control.

Q: And the T/C (dose: 256.0 mg/kg/injection, schedule: Q01DX005 (ip), vehicle: saline)?
A: The T/C was 124 % of control.

Q: How did the T/C [7] turn out when OC(CBr)C(O)C(O)C(O)CBr (configuration not stated) was run?
A: Its T/C is 102 % of control.

Q: And the T/C [8]?
A: The T/C was 106 % of control.

Q: What about the T/C (dose: 50.0 mg/kg/injection, schedule: Q01DX005 (ip), vehicle: saline) of the same compound?
A: Its T/C is 122 % of control.

Q: What about the T/C (dose: 100.0 mg/kg/injection, schedule: Q01DX005 (ip), vehicle: Klucel (hydroxypropylcellulose) (HPC)) of the same compound?
A: The T/C was 97 % of control.

Q: What about the T/C (dose: 200.0 mg/kg/injection, schedule: Q01DX005 (ip), vehicle: Klucel (hydroxypropylcellulose) (HPC)) of the same compound?
A: Its T/C is 109 % of control.

Q: And the T/C (dose: 200.0 mg/kg/injection, schedule: Q01DX005 (ip), vehicle: saline)?
A: Its T/C is 118 % of control and 195 % of control and 233 % of control.

Q: N[C@@H](Cc1ccc(N(CCCl)CCCl)cc1)C(=O)O was tested. Which T/C (dose: 0.5 mg/kg/injection, schedule: Q01DX001 (ip), vehicle: saline) did it give?
A: Its T/C is 102 % of control.

Q: What about the T/C [5] of the same compound?
A: The T/C was 93 % of control.

Q: And the T/C (dose: 1.0 mg/kg/injection, schedule: Q01DX001 (ip), vehicle: saline)?
A: The T/C was 98 % of control and 102 % of control and 105 % of control.

Q: What about the T/C [6] of the same compound?
A: Its T/C is 107 % of control.

Q: And the T/C (dose: 2.0 mg/kg/injection, schedule: Q01DX001 (ip), vehicle: saline)?
A: Its T/C is 102 % of control and 104 % of control and 110 % of control.

Q: And the T/C [4]?
A: The T/C was 109 % of control.

Q: And the T/C (dose: 4.0 mg/kg/injection, schedule: Q01DX001 (ip), vehicle: saline)?
A: The T/C was 96 % of control and 103 % of control and 110 % of control.

Q: And the T/C (dose: 8.0 mg/kg/injection, schedule: Q01DX001 (ip), vehicle: saline)?
A: The T/C was 103 % of control and 113 % of control and 117 % of control.

Q: Which T/C [9] does the source give for CN1CCC23c4c5ccc(O)c4OC2C(O)C=CC3C1C5 (configuration not stated) here?
A: The T/C was 112 % of control.

Q: And the T/C [10]?
A: Its T/C is 101 % of control.

Q: And the T/C [11]?
A: The T/C was 99 % of control.

Q: NC(=S)N/N=C/c1ccc(O)cn1 was tested. Which T/C (dose: 12.0 mg/kg/injection, schedule: Q01DX005 (ip), vehicle: saline) did it give?
A: Its T/C is 102 % of control.

Q: And the T/C (dose: 24.0 mg/kg/injection, schedule: Q01DX005 (ip), vehicle: saline)?
A: Its T/C is 107 % of control.

Q: What about the T/C (dose: 48.0 mg/kg/injection, schedule: Q01DX005 (ip), vehicle: saline) of the same compound?
A: The T/C was 110 % of control.

Q: What about the T/C (dose: 96.0 mg/kg/injection, schedule: Q01DX005 (ip), vehicle: saline) of the same compound?
A: Its T/C is 115 % of control.
